Data from a melting point compilation (Tetko et al.; mined from patent text by program, amines drawn as free bases though some values may be those of a salt).

SMILES	melting point [°C]
CCNC(=O)NC[C@H]1CN(c2ccc3c(c2)CCCc2cnoc2-3)C(=O)O1	193 to 196
Nc1nc2c(ncn2[C@@H]2CO[C@H](CO)C2)c(=O)[nH]1	261 to 263
O=C(Cc1ccc2ccn(C3CCN(CCc4ccc(F)cc4)CC3)c2c1)NCC1OCCO1	118 to 119
CC(=O)Nc1nc(CCc2ccc(NC(=O)OC(C)(C)C)cc2)c(C(=O)Nc2ccccc2)s1	199 to 200
Cc1cccc(NC(=O)NC(CC(N)=O)C(=O)N(CC(=O)OC(C)(C)C)c2ccccc2)c1 (racemic)	192
C=CC(C)(C)c1cc(CCC(=O)c2ccc(O)cc2)c(OC)cc1O	154
CC(C)COc1ccc(-c2nc3c(C(=O)O)cccc3[nH]2)cc1C#N	299 to 302
O=C(Nc1ccccc1C(c1ccc(O)cc1)c1ccc(O)cc1)c1ccc([N+](=O)[O-])cc1	258 to 259
CCC(C)P(=S)(NP(=S)(C(C)CC)C(C)CC)C(C)CC (centres undefined)	110 to 114
Nc1nc(O)c2c(n1)NCC(CCc1nc(C(=O)N[C@@H](CCC(=O)O)C(=O)O)cs1)C2 (some centres undefined)	210 to 212
O=C(Cc1ccccc1)c1ccc(Cl)c(Cl)c1	84 to 85
CS(=O)c1ccc(-c2cnn(CC(F)(F)F)c(=O)c2-c2ccc(Cl)cc2)cc1 (centres undefined)	154 to 155
CC(C)(C)COc1c(-c2ccc(S(N)(=O)=O)cc2)cnn(CC(F)(F)F)c1=O	123 to 124
O=C1c2c(Cl)cccc2-c2cc(O)cc3cccc1c23	308 to 312
Cc1ccc([N+](=O)[O-])c(Oc2cc(C(F)(F)F)nn2C)c1	88 to 90
CNC(=O)[C@@H]1C[C@@H](OC(C)(C)C)CN1S(=O)(=O)c1ccc(Cl)c(CBr)c1Cl	73
CCCc1cc2c(NCCc3ccccc3)ncnc2s1	110
O=C(O)c1cccnc1C(=O)c1ccccc1	115 to 121
CC(C)(C)OC(=O)N1CCn2c(c(C(N)=O)c(Br)c2C2CC2)C1	162
COc1cc(CNc2nc(C)nc(C)c2Cl)ccc1OCc1ccccc1	101 to 105
CC(C)CC1(Cn2cnc3ccccc32)Sc2[nH]c(=O)n(C)c(=O)c2C1Sc1cccs1 (centres undefined)	198
COc1cc(CC#N)c([N+](=O)[O-])cc1C(F)(F)F	103 to 104
Cc1cc2c(cc1[N+](=O)[O-])C(=O)CC(C)O2 (centres undefined)	110 to 113
COc1ccc(S(=O)(=O)C2(C(=O)NO)CCN(Cc3ccc(-c4ccccn4)cc3)CC2)cc1	214
Cc1cccc(Nc2nc(Cl)nc(Cl)n2)c1C	186 to 188

SMILES	melting point [°C]
CCC1(CC)C(=O)N(c2ccc(C#N)c(C(F)(F)F)c2)C(=S)N1C	126 to 127
CNC(=O)Oc1ccc2c(ccn2NCCCc2ccncc2F)c1	165 to 166
CC(C)c1nsc(N2CCN(C(=O)Nc3noc4ccccc34)CC2)n1	178 to 179
CCCCOc1cccc(C[C@H](NC(=O)c2coc(NS(C)(=O)=O)n2)[C@H](O)CNCc2cccc(CC)c2)c1	78 to 80
C=C1C(=C)C2OC1C1=C2CC2C(O)C=CC(=O)C2C1 (centres undefined)	110
C=C(CC(C)C(=O)O)C(=O)O (centres undefined)	106 to 108
O=C1COc2ccc(C3=Cc4cc(F)ccc4SC3c3ccc(F)cc3)cc2N1 (centres undefined)	191 to 192
NC(Cc1ccc(C(=O)c2ccccc2)cc1)C(=O)O (racemic)	217
O=C1Nc2cc(CN3CC=C(c4ccc(Cl)cc4)CC3)cnc2N2CCC[C@@H]12	234 to 235
CCCn1c(=O)[nH]c2ccc(C(=O)c3nc(-c4cccc(C(=O)O)c4)c4ccccn34)cc2c1=O	365
COC(=O)C(Cc1ccccc1)Cc1ccc(OCCn2c(=O)sc3cc(C(=O)c4ccccc4)ccc32)cc1 (centres undefined)	65 to 67
CN1CCNC(=O)C1c1ccc([N+](=O)[O-])cc1 (centres undefined)	185 to 186
Cc1cc(C(C)NC(=O)N(C)O)c(C)s1 (centres undefined)	104 to 106
CNC(=O)c1cc(C)ccc1Nc1nc(Nc2ccc3c(c2)CCN(CCOC)CC3)ncc1Cl	210 to 212
Clc1ccc2sc(Cl)nc2c1	70
Cc1ccc2nc3n(c2c1)CCC3	118 to 120
CCC[C@@H]([C@@H](CC(C)C)C(=O)N[C@@H](CCCNCN=N[N+](=O)[O-])C(=O)Nc1nccs1)N(O)C=O	130 to 136
C=CC=CN(C(=O)CCl)c1c(C)cccc1C	88
Cc1cc2c(=O)n3cc(C(=O)O)ccc3nc2s1	312 to 315
CCOC(=O)c1nc(-c2ccc([N+](=O)[O-])c(C)c2)[nH]c1-c1ccc(OC)cc1	187 to 191
C=Cc1cc(C)cc(NC(C)=O)n1	140
COc1ccc(NC(=N)c2cccnc2)cc1	137 to 139
CNC(=O)c1cc(-c2ccc(SC)cc2)nn(CC(C)C)c1=O	130 to 131
CNc1nc2ccc(CCc3ccccn3)cc2s1	118 to 120
